Reference: patent US7825256B2, “Inducible nitric oxide synthase dimerization inhibitors” (Kalypsys, Inc., priority 2004, dated 2010)
Structures can show the parent of a compound that is named as a salt.

Target: T1, hiNOS (Homo sapiens, UniProt P35228)
T1 construct: expressed in transfected cells; host or cells: HEK293
Assay: DAN assay, hiNOS expressed in transiently transfected HEK293 cells
Assay type: cell-based
Conditions: HEK293 cells transiently transfected with hiNOS
Description: The source of nitric oxide synthase (NOS) enzyme can be generated in several ways including induction of endogenous iNOS using cytokines and/or lipopolysaccharide (LPS) in various cell types known in the art. Alternatively, the gene encoding the enzyme can be cloned and the enzyme can be generated in cells via heterologous expression from a transient or stable expression plasmid with suitable features for protein expression as are known in the art. Enzymatic activity (nitric oxide production) is calcium independent for iNOS, while the constitutive NOS isoforms, nNOS and eNOS, become active with the addition of various cofactors added to cellular media or extract as are well known in the art. Enzymes specified in Table 1 were expressed in HEK293 cells transiently transfected with the indicated NOS isoform.
A major metabolic pathway for nitric oxide is to nitrate and nitrite, which are stable metabolites within tissue culture, tissue, plasma, and urine (S Moncada, A Higgs, N Eng J Med 329, 2002 (1993)).
The level of nitrate or nitrite in the specimen can be quantified by any method known in the art which provides adequate sensitivity and reproducibility. A variety of protocols have also been described for detecting and quantifying nitrite and nitrate levels in biological fluids by ion chromatography (e.g., S A Everett et al., J. Chromatogr. 706, 437 (1995); J M Monaghan et al., J. Chromatogr. 770, 143 (1997)), high-performance liquid chromatography (e.g., M Kelm et al., Cardiovasc. Res. 41, 765 (1999)), and capillary electrophoresis (M A Friedberg et al., J. Chromatogr. 781, 491 (1997)). For example, 2,3-diaminonaphthalene reacts with the nitrosonium cation that forms spontaneously from NO to form the fluorescent product […]. Using 2,3-diaminonaphthalene (“DAN”), researchers have developed a rapid, quantitative fluorometric assay that can detect from 10 nM to 10 μM nitrite and is compatible with a multi-well microplate format. […] DAN reacts with nitrite ion and gives fluorescent […] (M C Carré et al., Analysis 27, 835-838 (1999)). Table 1 provides the test results of various compounds of the subject invention using the DAN assay.
A specimen can be processed prior to determination of nitrate or nitrite as required by the quantification method, or in order to improve the results, or for the convenience of the investigator. For example, processing can involve centrifuging, filtering, or homogenizing the sample. If the sample is whole blood, the blood can be centrifuged to remove cells and the nitrate or nitrite assay performed on the plasma or serum fraction. If the sample is tissue, the tissue can be dispersed or homogenized by any method known in the art prior to determination of nitrate or nitrite. It may be preferable to remove cells and other debris by centrifugation or another method and to determine the nitrate or nitrite level using only the fluid portion of the sample, or the extracellular fluid fraction of the sample. The sample can also be preserved for later determination, for example by freezing of urine or plasma samples. When appropriate, additives may be introduced into the specimen to preserve or improve its characteristics for use in the nitrate or nitrite assay.
The “level” of nitrate, nitrite, or other NO-related product usually refers to the concentration (in moles per liter, micromoles per liter, or other suitable units) of nitrate or nitrite in the specimen, or in the fluid portion of the specimen. However, other units of measure can also be used to express the level of nitrate or nitrite. For example, an absolute amount (in micrograms, milligrams, nanomoles, moles, or other suitable units) can be used, particularly if the amount refers back to a constant amount (e.g., grams, kilograms, milliliters, liters, or other suitable units) of the specimens under consideration. A number of commercially available kits can be used.

Work on `CN(CCCNS(=O)(=O)c1ccc(OC(F)(F)F)cc1)c1nc(-n2ccnc2)ns1` [Example 34, N-{3-[(3-Imidazol-1-yl-[1,2,4]thiadiazol-5-yl)-methyl-amino]-propyl}-4-trifluoromethoxy-benzenesulfonamide] yielded an EC50 greater than 50 µM.

For `CC(C)[C@@H](Nc1nc(-n2ccnc2)ns1)C(=O)NCCc1ccc2c(c1)OCO2` [Example 122, (R)—N-(2-Benzo[1,3]dioxol-5-yl-ethyl)-2-(3-imidazol-1-yl-[1,2,4]thiadiazol-5-ylamino)-3-methyl-butyramide], the EC50 was less than 1 µM.

`Cc1cc(CNC(=O)C2CCCN2Cc2ccc(C(F)(F)F)cc2)nc(-n2ccnc2)n1` (stereo not shown) [Example 107, 1-(4-Trifluoromethyl-benzyl)-pyrrolidine-2-carboxylic acid (2-imidazol-1-yl-6-methyl-pyrimidin-4-ylmethyl)-amide] gave an EC50 greater than 50 µM.

`CN(CC(=O)NCCc1ccc2c(c1)OCO2)c1nc(-n2ccnc2)ns1` [Example 30, N-(2-Benzo[1,3]dioxol-5-yl-ethyl)-2-[(3-imidazol-1-yl-[1,2,4]thiadiamol-5-yl)-methyl-amino]-acetamide] showed an EC50 of less than 1 µM.

Work on `CN(CCCNCc1ccc2[nH]ccc2c1)c1nc(-n2ccnc2)ns1` [Example 18, N-(3-Imidazol-1-yl-[1,2,4]thiadiazol-5-yl)-N′-(1H-indol-5-ylmethyl)-N-methyl-propane-1,3-diamine] yielded an EC50 greater than 50 µM.

For `CN(CCCNCc1ccc2c(c1)OCO2)c1nc(-n2cncn2)ns1` [Example 145, N′-Benzo[1,3]dioxol-5-ylmethyl-N-methyl-N-(3-[1,2,4]triazol-1-yl-[1,2,4]thiadiazol-5-yl)-propane-1,3-diamine], the EC50 was greater than 50 µM.

Molecule `Cc1cc(C2CCC(=O)N2CCNCc2ccc3c(c2)OCO3)nc(-n2ccnc2)n1` (stereo not shown) [Example 138, 1-{2-[(Benzo[1,3]dioxol-5-ylmethyl)-amino]-ethyl}-5-(2-imidazol-1-yl-6-methyl-pyrimidin-4-yl)-pyrrolidin-2-one hydrochloride] has an EC50 of less than 1 µM.

`Cc1cc(CNC(=O)CNCc2ccc3c(c2)OCO3)nc(-n2ccnc2)n1` [Example 14] showed an EC50 of less than 1 µM.

`CC(NCCOCc1ccc2c(c1)OCO2)c1nc(-n2ccnc2)ns1` (stereo not shown) [Example 65, [2-(Benzo[1,3]dioxol-5-ylmethoxy)-ethyl]-[1-(3-imidazol-1-yl-[1,2,4]thiadiazol-5-yl)-ethyl]-amine] was tested, and the EC50 was less than 1 µM.

Molecule `CCOC(=O)CN(CCCNCc1ccc2c(c1)OCO2)c1nc(-n2ccnc2)ns1` [Example 53, [{3-[(Benzo[1,3]dioxol-5-ylmethyl)-amino]-propyl}-(3-imidazol-1-yl-[1,2,4]thiadiazol-5-yl)-amino]-acetic acid ethyl ester] has an EC50 of less than 1 µM.

With `CN(CCCNCc1ccc2c(c1)OCO2)c1nc(-n2cnc(I)c2)ns1` [Example 81, N′-Benzo[1,3]dioxol-5-ylmethyl-N-[3-(4-iodo-imidazol-1-yl)-[1,2,4]thiadiazol-5-yl]-N-methyl-propane-1,3-diamine] the EC50 was greater than 50 µM.

Molecule `COc1ccc(CNCCCN(C)c2nc(-n3ccnc3)ns2)cc1` [Example 8, N-(3-Imidazol-1-yl-[1,2,4]thiadiazol-5-yl)-N′-(4-methoxy-benzyl)-N-methyl-propane-1,3-diamine] has an EC50 of less than 1 µM.

With `CCOC(=O)C(NC(=O)CNCc1ccc2c(c1)OCO2)c1cc(C)nc(-n2ccnc2)n1` (stereo not shown) [Example 41, {2-[(Benzo[1,3]dioxol-5-ylmethyl)-amino]-acetylamino}-(2-imidazol-1-yl-6-methyl-pyrimidin-4-yl)-acetic acid ethyl ester] the EC50 was less than 1 µM.

`O=C(NCCc1ccc2c(c1)OCCO2)[C@H]1C[C@@H](O)CN1c1nc(-n2ccnc2)ns1` [Example 123, (2R,4R)-4-Hydroxy-1-(3-imidazol-1-yl-[1,2,4]thiadiazol-5-yl)-pyrrolidine-2-carboxylic acid [2-(2,3-dihydro-benzo[1,4]dioxin-6-yl)-ethyl]-amide] gave an EC50 of less than 1 µM.

Molecule `Cc1cc(C(C)(C)CNCCCc2ccc3c(c2)OCO3)nc(-n2ccnc2)n1` [Example 78, (3-Benzo[1,3]dioxol-5-yl-propyl)-{2-[2-(2H-imidazol-1-yl)-6-methyl-pyrimidin-4-yl]-2-methyl-propyl}-amine hydrochloride] has an EC50 of less than 1 µM.

Work on `O=C(NCCc1ccc2c(c1)OCCO2)[C@H]1CCCN1c1nc(-n2ccnc2)ns1` [Example 120, 1-(3-Imidazol-1-yl-[1,2,4]thiadiazol-5-yl)-pyrrolidine-2-carboxylic acid [2-(2,3-dihydro-benzo[1,4]dioxin-6-yl)-ethyl]-amide] yielded an EC50 of less than 1 µM.

Molecule `CN(CCNCCc1ccc2c(c1)OCO2)c1nc(-n2ccnc2)ns1` [Example 127, N′-(2-Benzo[1,3]dioxol-5-yl-ethyl)-N-(3-imidazol-1-yl-[1,2,4]thiadiazol-5-yl)-N-methyl-ethane-1,2-diamine] has an EC50 of less than 1 µM.

In the case of `CNC(=O)C1CCC(C(=O)NCCc2ccc3c(c2)OCO3)N1c1nc(-n2ccnc2)ns1` (stereo not shown) [Example 96, 1-(3-Imidazol-1-yl-[1,2,4]thiadiazol-5-yl)-pyrrolidine-2,5-dicarboxylic acid 2-[(2-benzo[1,3]dioxol-5-yl-ethyl)-amide] 5-methylamide], the EC50 is reported as less than 50 µM.

Molecule `CN(CCc1ccc2c(c1)OCCO2)CCN(C)c1nc(-n2ccnc2)ns1` [Example 84, N-[2-(2,3-Dihydro-benzo[1,4]dioxin-6-yl)-ethyl]-N′-(3-imidazol-1-yl-[1,2,4]thiadiazol-5-yl)-N,N′-dimethyl-ethane-1,2-diamine] has an EC50 of less than 1 µM.

`Cc1cc(C2CCCN2CCNCc2ccc3c(c2)OCO3)nc(-n2ccnc2)n1` (single isomer, unassigned) [Example 132, Benzo[1,3]dioxol-5-ylmethyl-{2-[2-(2-imidazol-1-yl-6-methyl-pyrimidin-4-yl)-pyrrolidin-1-yl]-ethyl}-amine] gave an EC50 of less than 1 µM.

For `Cc1cc(C2C(C(=O)NCCc3ccc4c(c3)OCO4)CCN2C)nc(-n2ccnc2)n1` (stereo not shown) [Example 125, 2-(2-Imidazol-1-yl-6-methyl-pyrimidin-4-yl)-1-methyl-pyrrolidine-3-carboxylic acid (2-benzo[1,3]dioxol-5-yl-ethyl)-amide], the EC50 was less than 1 µM.

Work on `Cc1cc(C(C)(C)CNC(=O)CCc2ccc3c(c2)OCO3)nc(-n2ccnc2)n1` [Example 143, 3-Benzo[1,3]dioxol-5-yl-N-[2-(2-imidazol-1-yl-6-methyl-pyrimidin-4-yl)-2-methyl-propyl]-propionamide] yielded an EC50 of less than 1 µM.

With `CC(NCCNCc1ccc2c(c1)OCO2)c1csc(-n2ccnc2)n1` (stereo not shown) [Example 68, N-Benzo[1,3]dioxol-5-ylmethyl-N′-[1-(2-imidazol-1-yl-thiazol-4-yl)-ethyl]-ethane-1,2-diamine] the EC50 was less than 1 µM.

Work on `CN(CCCN(Cc1ccc2c(c1)OCO2)C(=O)OC(C)(C)C)c1nc(-n2cnc(I)c2)ns1` [Example 80] yielded an EC50 greater than 50 µM.

`Cc1cc(C(C)NCCOCc2ccc3c(c2)OCO3)nc(-n2ccnc2)n1` (stereo not shown) [Example 43, [2-(Benzo[1,3]dioxol-5-ylmethoxy)-ethyl]-[1-(2-imidazol-1-yl-6-methyl-pyrimidin-4-yl)-ethyl]-amine] showed an EC50 of less than 1 µM.

`O=C(NCCc1ccc2c(c1)OCCO2)[C@H]1C[C@H](O)CN1c1nc(-n2ccnc2)ns1` [Example 126, (2R,4S)-4-Hydroxy-1-(3-imidazol-1-yl-[1,2,4]thiadiazol-5-yl)-pyrrolidine-2-carboxylic acid [2-(2,3-dihydro-benzo[1,4]dioxin-6-yl)-ethyl]-amide] showed an EC50 of less than 1 µM.

For `Cc1cc(C(C)(C)CNC(=O)NCc2ccc3c(c2)OCO3)nc(-n2ccnc2)n1` [Example 144, 1-Benzo[1,3]dioxol-5-ylmethyl-3-[2-(2-imidazol-1-yl-6-methyl-pyrimidin-4-yl)-2-methyl-propyl]-urea], the EC50 was less than 1 µM.

Work on `c1cn(-c2nsc(N3CCN(Cc4ccc5c(c4)OCO5)CC3)n2)cn1` [Example 33, 1-Benzo[1,3]dioxol-5-ylmethyl-4-(3-imidazol-1-yl-[1,2,4]thiadiazo-5-yl)-piperazine] yielded an EC50 of less than 50 µM.
